From PubChem BioAssay (NCI) come the findings set out here.

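Assay format: 96-well plates, 48-hour exposure. GI50 = concentration required for 50% inhibition of growth. At the TGI there is no net growth.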 Where only a bound is given, the exact number is not on record here.

Test systems include NCI-H23 lung; SK-MEL-28 melanoma; SF-268 CNS; SK-MEL-2 melanoma; MOLT-4 leukemia; HCC-2998 colon; UACC-62 melanoma; HCT-15 colon; TK-10 renal; KM12 colon.
Assay in all cases: NCI anticancer screen, dose series, 48 h

`Nc1csc(-c2scc3c2OCCO3)c1N`: the TGI in the assay with NCI-H23 lung is 35.6 µM; with SK-MEL-28 melanoma it was 49.5 µM; with SF-268 CNS, 47.5 µM; in the assay on SK-MEL-2 melanoma, 40 µM; with MOLT-4 leukemia, over 100 µM; in the assay with HCC-2998 colon, 49.8 µM. For the same molecule, the TGI in the assay on UACC-62 melanoma is 45.1 µM; with HCT-15 colon, 35.1 µM; with TK-10 renal, 87.3 µM; in the assay on KM12 colon, 56.5 µM.

Take `COc1cc(/C=C2\CC3C4CC[C@H]5C[C@@H](O)CC[C@]5(C)C4CC[C@]3(C)\C2=N\O)cc(OC)c1OC` (some centres undefined): the TGI with NCI-H23 lung was over 100 µM; with SK-MEL-28 melanoma it was 66.9 µM; in the assay on SF-268 CNS, over 100 µM; in the assay with SK-MEL-2 melanoma, 31.7 µM; in the assay with MOLT-4 leukemia, 37.5 µM; in the assay on HCC-2998 colon it was 38.6 µM. The TGI in the assay with UACC-62 melanoma was 35 µM; in the assay on HCT-15 colon, over 100 µM; in the assay on TK-10 renal, over 100 µM; in the assay on KM12 colon it was 56.7 µM.

Consider `CCCC(=O)Nc1cc(/C=C/C(=O)N2CC(CCl)c3c2cc(OC(C)=O)c2[nH]cc(C)c32)n(C)c1` (centres undefined), for which the TGI was 8.72e-05 µM with NCI-H23 lung; under 2.5e-05 µM in the assay with SF-268 CNS; 0.000121 µM with SK-MEL-2 melanoma; 0.00436 µM in the assay on MOLT-4 leukemia; 4.23e-05 µM in the assay with UACC-62 melanoma; over 0.134 µM in the assay on HCT-15 colon. Further, the TGI with KM12 colon worked out at 0.00247 µM.

As to `Cc1ccc([N+](=O)[O-])cc1S(=O)(=O)Nc1ccc(C2=NN(C(=O)c3ccccc3)C(c3ccccc3O)C2)cc1` (centres undefined), the TGI is 35.5 µM with NCI-H23 lung; over 100 µM in the assay with SK-MEL-28 melanoma; 45.9 µM in the assay with SF-268 CNS; 46.4 µM with SK-MEL-2 melanoma; 51.5 µM in the assay on MOLT-4 leukemia; 33.5 µM with HCT-15 colon. For the same molecule, the results for the TGI in the assay on TK-10 renal and in the assay with KM12 colon were 28.5 µM and over 100 µM, respectively.

In the case of `Nc1ccc(Cc2ccc(N)c(C(=O)O)c2)cc1C(=O)O`, the TGI in the assay on NCI-H23 lung, with SK-MEL-28 melanoma, with SF-268 CNS, in the assay on SK-MEL-2 melanoma, in the assay on HCC-2998 colon and in the assay with UACC-62 melanoma was over 100 µM in each case. Further, the TGI in the assay with HCT-15 colon, with TK-10 renal and with KM12 colon was over 100 µM throughout.

On to `O=S(C(c1ccccc1)=P(c1ccccc1)(c1ccccc1)c1ccccc1)c1ccc(Cl)cc1` (centres undefined), for which the TGI is over 100 µM in the assay on NCI-H23 lung; over 100 µM in the assay with SK-MEL-28 melanoma; 87.9 µM with SF-268 CNS; 45.9 µM with SK-MEL-2 melanoma; over 100 µM in the assay with MOLT-4 leukemia; over 100 µM with HCC-2998 colon. The TGI with HCT-15 colon is over 100 µM; in the assay with TK-10 renal, over 100 µM; in the assay on KM12 colon, 57.2 µM.

Consider `CCCCSCCC(N)P(=O)(O)O` (centres undefined), for which the TGI in the assay on NCI-H23 lung, with SK-MEL-28 melanoma, in the assay on SK-MEL-2 melanoma, with MOLT-4 leukemia, in the assay on HCC-2998 colon and in the assay with HCT-15 colon was over 100 µM in each case. This molecule also yielded a TGI with TK-10 renal of over 100 µM.

With `COc1cc(S(=O)(=O)Nc2ccc(-c3csc(/N=C\c4cccc(Oc5ccccc5)c4)n3)cc2)ccc1Cl`, the TGI was over 100 µM in the assay on NCI-H23 lung; over 100 µM in the assay on SK-MEL-28 melanoma; over 100 µM in the assay on SF-268 CNS; over 100 µM in the assay with SK-MEL-2 melanoma; over 100 µM in the assay on MOLT-4 leukemia; 25.1 µM in the assay with UACC-62 melanoma. For the same molecule, the TGI with HCT-15 colon and in the assay with KM12 colon was over 100 µM in each case.

Regarding `CC(C)C(=O)CC(c1ccc(Br)cc1)N1N=C(C(C)C)CC1c1ccc(Br)cc1` (centres undefined), the TGI in the assay on NCI-H23 lung, with SK-MEL-28 melanoma, with SF-268 CNS, with SK-MEL-2 melanoma, in the assay on MOLT-4 leukemia and in the assay on HCC-2998 colon was over 100 µM each time. Besides, the TGI with HCT-15 colon, with TK-10 renal and with KM12 colon was over 100 µM throughout.

As to `CN(CCc1ccccn1)c1ccc2c(c1)Cc1ccccc1-2`, the TGI with NCI-H23 lung, with SK-MEL-28 melanoma, in the assay on SF-268 CNS, with MOLT-4 leukemia, in the assay on HCC-2998 colon and in the assay on UACC-62 melanoma was over 100 µM each time. Also, the TGI in the assay with HCT-15 colon was over 100 µM; in the assay with TK-10 renal, over 100 µM; in the assay with KM12 colon it was 37.7 µM.

Consider `O=C1CNc2cc(N3CCCCC3)ccc2N1`, for which the TGI in the assay with NCI-H23 lung, with SK-MEL-28 melanoma, with SK-MEL-2 melanoma, with MOLT-4 leukemia, with HCC-2998 colon and in the assay with UACC-62 melanoma was over 100 µM each time. The TGI with HCT-15 colon, in the assay on TK-10 renal and in the assay with KM12 colon was over 100 µM each time.

As for `Clc1cccc(/C=c2\nc(-c3ccccc3)n3c2nc2ccccc23)c1`, the TGI in the assay on NCI-H23 lung, with SK-MEL-28 melanoma, in the assay on SF-268 CNS, with SK-MEL-2 melanoma, with MOLT-4 leukemia and in the assay with UACC-62 melanoma was over 100 µM each time. Further, the TGI in the assay on HCT-15 colon, in the assay with TK-10 renal and in the assay with KM12 colon was over 100 µM each time.

On to `CN(CCCNC(=O)c1nn(-c2ccccc2)c2c1Cc1ccccc1-2)CCCNC(=O)c1nn(-c2ccccc2)c2c1Cc1ccccc1-2`, for which the TGI in the assay with NCI-H23 lung amounted to 3.03 µM; with SK-MEL-28 melanoma, 2.77 µM; in the assay on SF-268 CNS it was 3.31 µM; in the assay on SK-MEL-2 melanoma, 2.69 µM; in the assay with MOLT-4 leukemia, 2.95 µM; in the assay on HCC-2998 colon, 2.77 µM. Also, the TGI was determined as 3.26 µM in the assay with UACC-62 melanoma, 3.1 µM in the assay on HCT-15 colon and 3.22 µM with TK-10 renal.

In the case of `CS(=O)(=O)Nc1cccc(-c2ccc3ncnc(Nc4cncc(Cl)c4)c3c2)c1`, the GI50 with NCI-H23 lung is 2.51 µM; in the assay on SF-268 CNS it was 2.26 µM; in the assay with SK-MEL-2 melanoma, 2.64 µM; in the assay with MOLT-4 leukemia, 2.38 µM; with HCC-2998 colon it was 2.4 µM; with UACC-62 melanoma it was 1.75 µM. The figures for the GI50 in the assay with TK-10 renal and in the assay with KM12 colon were 0.748 µM and 2.92 µM, respectively. The TGI in the assay on NCI-H23 lung was 16.9 µM; in the assay on SF-268 CNS, over 100 µM; in the assay on SK-MEL-2 melanoma, 7.35 µM; in the assay on MOLT-4 leukemia, 7.61 µM; in the assay with HCC-2998 colon it was 5.27 µM; in the assay on UACC-62 melanoma, 3.86 µM. Further, the TGI is 5.44 µM in the assay with TK-10 renal and over 100 µM with KM12 colon.
